Data published in patent publication US11583569B2, “PSMA-targeting amanitin conjugates” (Heidelberg Pharma Research GmbH, priority 2017, dated 2023).

Tests used:
[1] = system: LNCaP (PSMA+); format: cell-based; details: for S (selectivity): IC50 PC3 (PSMA−) / IC50 LNCaP (PSMA+); for TI for LNCaP: IC50 of free toxin / IC50 of conjugate; for IC50: LNCaP (PSMA+)
Text: (§1) Note: A direct comparison of all DUPA conjugates with amanitin was not performed in one experiment. The amanitin curve shown in the graph is derived from the direct comparison between HDP 30.2284 and amanitin.

[2] = system: PC3 (PSMA−); format: cell-based
Text: as §1

[3] = target: RNA-polymerase II (Homo sapiens, UniProt P24928); details: complex between amanitin and RNA-polymerase II; cited from earlier work

SMILES | S (selectivity) [1] | TI for LNCaP [1] | IC50 [1] [nM] | IC50 [2] [nM] | Kd [3] [nM]
CC[C@H](C)[C@@H]1NC(=O)CNC(=O)[C@@H]2Cc3c([nH]c4cc(OCCC(C)SSC[C@H](NC(=O)[C@H](Cc5ccccc5)NC(=O)[C@H](Cc5ccccc5)NC(=O)CCCCCCCNC(=O)CC[C@H](NC(=O)N[C@@H](CCC(=O)O)C(=O)O)C(=O)O)C(=O)O)ccc34)[S@+]([O-])C[C@H](NC(=O)CNC1=O)C(=O)N[C@@H](CC(N)=O)C(=O)N1C[C@H](O)C[C@H]1C(=O)N[C@@H]([C@@H](C)[C@@H](O)CO)C(=O)N2 (stereo partly drawn) [HDP 30.2589] | 22.5 | 53 |  |  | 
CC[C@H](C)[C@@H]1NC(=O)CNC(=O)[C@@H]2Cc3c([nH]c4cc(OCc5ccc(NC(=O)[C@H](CCCNC(N)=O)NC(=O)[C@@H](NC(=O)CCCCCN6C(=O)CC(SC[C@H](NC(=O)[C@H](Cc7ccccc7)NC(=O)[C@H](Cc7ccccc7)NC(=O)CCCCCCCNC(=O)CC[C@H](NC(=O)N[C@@H](CCC(=O)O)C(=O)O)C(=O)O)C(=O)O)C6=O)C(C)C)cc5)ccc34)[S@+]([O-])C[C@H](NC(=O)CNC1=O)C(=O)N[C@@H](CC(N)=O)C(=O)N1C[C@H](O)C[C@H]1C(=O)N[C@@H]([C@@H](C)[C@@H](O)CO)C(=O)N2 (stereo partly drawn) [HDP 30.2537, 6′-O-[6-(3-(((DUPA-Aoc-Phe-Phe-Cys)-sulfanyl)-2,5-dioxopyrrolidin-1-yl)-hexanamido)-Val-Cit-PAI3]-α-amantin] | 148 | 371 |  |  | 
CC[C@H](C)[C@@H]1NC(=O)CNC(=O)[C@@H]2Cc3c([nH]c4cc(O)ccc34)[S+]([O-])C[C@@H](NC(=O)CNC1=O)C(=O)N[C@@H](CC(N)=O)C(=O)N1C[C@H](O)C[C@H]1C(=O)N[C@@H]([C@@H](C)[C@@H](O)CO)C(=O)N2 (stereo in doubt) [α-amanitin, reference compound] |  |  | 479 | 213 | 3
CC[C@H](C)[C@@H]1NC(=O)CNC(=O)[C@H]2Cc3c([nH]c4cc(OCc5ccc(NC(=O)[C@H](C)NC(=O)[C@@H](NC(=O)CCCCCN6C(=O)CC(SC[C@H](NC(=O)[C@H](Cc7ccccc7)NC(=O)[C@H](Cc7ccccc7)NC(=O)CCCCCCCNC(=O)CCC(NC(=O)NC(CCC(=O)O)C(=O)O)C(=O)O)C(=O)O)C6=O)C(C)C)cc5)ccc34)[S+]([O-])C[C@H](NC(=O)CNC1=O)C(=O)N[C@@H](CC(N)=O)C(=O)N1C[C@H](O)C[C@H]1C(=O)N[C@@H]([C@@H](C)[C@@H](O)CO)C(=O)N2 (stereo partly drawn) [HDP 30.2284, 6′-O-[6-(3-(((DUPA-Aoc-Phe-Phe-Cys)-sulfanyl)-2,5-dioxopyrrolidin-1-yl)-hexanamido)-Val-Ala-PAB]-α-amantin] | 1819 | 555 | 0.863 | 1570 | 
CC[C@H](C)[C@@H]1NC(=O)CNC(=O)[C@@H]2Cc3c([nH]c4cc(OCc5ccc(NC(=O)[C@H](C)NC(=O)[C@@H](NC(=O)CN6C(=O)C(SCCOCCOCCOCCOCCOCCOCCOCCNC(=O)[C@H](Cc7ccccc7)NC(=O)[C@H](Cc7ccccc7)NC(=O)CCCCCCCNC(=O)CC[C@H](NC(=O)N[C@@H](CCC(=O)O)C(=O)O)C(=O)O)=C(SCCOCCOCCOCCOCCOCCOCCOCCNC(=O)[C@H](Cc7ccccc7)NC(=O)[C@H](Cc7ccccc7)NC(=O)CCCCCCCNC(=O)CC[C@H](NC(=O)N[C@@H](CCC(=O)O)C(=O)O)C(=O)O)C6=O)C(C)C)cc5)ccc34)[S@+]([O-])C[C@H](NC(=O)CNC1=O)C(=O)N[C@@H](CC(N)=O)C(=O)N1C[C@H](O)C[C@H]1C(=O)N[C@@H]([C@@H](C)[C@@H](O)CO)C(=O)N2 [HDP 30.2490, 6′-O-[(3,4-(((DUPA-Aoc-Phe-Phe-PEGn)-sulfanyl)-2,5-dioxopyrrolidin-1-yl)-propanamido)-Val-Ala-PAB]-α-amantin] | 52.5 | 62 |  |  | 
CC[C@H](C)[C@@H]1NC(=O)CNC(=O)[C@@H]2Cc3c([nH]c4cc(OCc5ccc(NC(=O)[C@H](C)NC(=O)[C@@H](NC(=O)CCN6C(=O)CC(SC[C@H](NC(=O)[C@H](Cc7ccccc7)NC(=O)[C@H](Cc7ccccc7)NC(=O)CCCCCCCNC(=O)CC[C@H](NC(=O)N[C@@H](CCC(=O)O)C(=O)O)C(=O)O)C(=O)O)C6=O)C(C)C)cc5)ccc34)[S@+]([O-])C[C@H](NC(=O)CNC1=O)C(=O)N[C@@H](CC(N)=O)C(=O)N1C[C@H](O)C[C@H]1C(=O)N[C@@H]([C@@H](C)[C@@H](O)CO)C(=O)N2 (stereo partly drawn) [HDP 30.2535, 6′-O-[3-(3-(((DUPA-Aoc-Phe-Phe-Cys)-sulfanyl)-2,5-dioxopyrrolidin-1-yl)-propanamido)-Val-Ala-PAB]-α-amantin] | 191 | 253 |  |  | 
CC[C@H](C)[C@@H]1NC(=O)CNC(=O)[C@@H]2Cc3c([nH]c4cc(OCCCCCCN5C(=O)CC(SC[C@H](NC(=O)[C@H](Cc6ccccc6)NC(=O)[C@H](Cc6ccccc6)NC(=O)CCCCCCCNC(=O)CC[C@H](NC(=O)N[C@@H](CCC(=O)O)C(=O)O)C(=O)O)C(=O)O)C5=O)ccc34)[S@+]([O-])C[C@H](NC(=O)CNC1=O)C(=O)N[C@@H](CC(N)=O)C(=O)N1C[C@H](O)C[C@H]1C(=O)N[C@@H]([C@@H](C)[C@@H](O)CO)C(=O)N2 (stereo partly drawn) [HDP 30.2301, 6′-O-[6-(((DUPA-Aoc-Phe-Phe-Cys)-sulfanyl)-2,5-dioxopyrrolidin-1-yl)-hexyl]-α-amantin] | 249 | 78 | 6.11 | 1520 | 
CC[C@H](C)[C@@H]1NC(=O)CNC(=O)C2Cc3c([nH]c4cc(OCc5ccc(NC(=O)[C@H](C)NC(=O)[C@@H](NC(=O)CSC[C@@H](NC(=O)[C@H](Cc6ccccc6)NC(=O)[C@H](Cc6ccccc6)NC(=O)CCCCCCCNC(=O)CCC(NC(=O)NC(CCC(=O)O)C(=O)O)C(=O)O)C(=O)O)C(C)C)cc5)ccc34)[S+]([O-])CC(NC(=O)CNC1=O)C(=O)N[C@@H](CC(N)=O)C(=O)N1CC(O)C[C@H]1C(=O)N[C@@H]([C@@H](C)[C@@H](O)CO)C(=O)N2 (stereo partly drawn) [HDP 30.2515, 6′-O-[2-((DUPA-Aoc-Phe-Phe-Cys)-sulfanyl)-acetamido-Val-Ala-PAB]-α-amantin] |  |  | 4.51 | 663 | 
